According to ChEMBL document CHEMBL5321290, “Discovery of the Diphenyl 6-Oxo-1,6-dihydropyridazine-3-carboxylate/carboxamide Analogue J27 for the Treatment of Acute Lung Injury and Sepsis by Targeting JNK2 and Inhibiting the JNK2-NF-κB/MAPK Pathway” (J Med Chem, 2023):
Calls of active or inactive are those of the source. The calls are words filed in the database; no cut-off is given here.

Tests used:
J774.A1 [1] = assay: Antiinflammatory activity against mouse J774A.1 cells assessed as inhibition of LPS-stimulated TNFalpha release measured at 10 uM after 30 mins by ELISA relative to control; type: functional; conditions: for inhibition at 10 µM: J774.A1, 0.5 h
J774.A1 [2] = assay: Antiinflammatory activity against mouse J774A.1 cells assessed as inhibition of LPS-stimulated IL6 release measured at 10 uM after 30 mins by ELISA relative to control; type: functional; conditions: for inhibition at 10 µM: J774.A1, 0.5 h

Row | Structure (SMILES) | inhibition at 10 µM (J774.A1 [1]) | inhibition (J774.A1 [2]) | inhibition (J774.A1 [1]) | inhibition at 10 µM (J774.A1 [2])
1 | COc1ccc(-n2nc(C(=O)Nc3ccc(Oc4ccnc5cc(OC)c(OC)cc45)cc3)c(C)cc2=O)cc1 | 12.1% | inactive |  | 
2 | CCc1ccccc1-n1nc(C(=O)Oc2cc(Nc3ncnc4cc(OC)c(OC)cc34)ccc2F)c(C)cc1=O |  | inactive | inactive | 
3 | COc1ccc(-n2nc(C(=O)Nc3cccc(Oc4ccnc5cc(OC)c(OC)cc45)c3)c(C)cc2=O)cc1 |  | inactive | inactive | 
4 | COc1ccc(-n2nc(C(=O)Oc3cc(Nc4ncnc5cc(OC)c(OC)cc45)ccc3F)c(C)cc2=O)cc1 |  |  | inactive | 31.9%
5 | COc1cc2ncnc(Oc3cccc(NC(=O)c4nn(-c5ccccc5)c(=O)cc4C)c3)c2cc1OC |  | inactive | inactive | 
6 | COc1cc2nccc(Oc3cccc(NC(=O)c4nn(-c5ccccc5)c(=O)cc4C)c3)c2cc1OC | 0.35% | inactive |  | 
7 | CCc1ccccc1-n1nc(C(=O)Nc2ccc(Oc3ncnc4cc(OC)c(OC)cc34)cc2)c(C)cc1=O | 58% |  |  | 18.4%
8 | COc1cc2nccc(Oc3cccc(NC(=O)c4nn(-c5ccc(F)cc5)c(=O)cc4C)c3)c2cc1OC | 20.6% |  |  | 38%
9 | CCc1ccccc1-n1nc(C(=O)Nc2ccc(Oc3ccnc4cc(OC)c(OC)cc34)cc2)c(C)cc1=O | 27.9% |  |  | 55.1%
10 | COc1cc2ncnc(Oc3cccc(NC(=O)c4nn(-c5ccc(F)cc5)c(=O)cc4C)c3)c2cc1OC |  |  | inactive | 16.1%
11 | CCc1ccc(-n2nc(C(=O)Oc3cc(Nc4ncnc5cc(OC)c(OC)cc45)ccc3F)c(C)cc2=O)cc1 | 21.8% |  |  | 38.3%
12 | COc1ccc(-n2nc(C(=O)Nc3ccc(Oc4ncnc5cc(OC)c(OC)cc45)cc3)c(C)cc2=O)cc1 | 57.5% | inactive |  | 
13 | COc1cc2ncnc(Nc3ccc(C)c(OC(=O)c4nn(-c5ccccc5)c(=O)cc4C)c3)c2cc1OC |  |  | inactive | 20.7%
14 | CCc1ccccc1-n1nc(C(=O)Nc2cccc(Oc3ncnc4cc(OC)c(OC)cc34)c2)c(C)cc1=O |  | inactive | inactive | 
15 | CCc1ccc(-n2nc(C(=O)Nc3ccc(Oc4ccnc5cc(OC)c(OC)cc45)cc3)c(C)cc2=O)cc1 | 61.9% |  |  | 34.9%
16 | COc1cc2nccc(Oc3ccc(NC(=O)c4nn(-c5ccccc5)c(=O)cc4C)cc3)c2cc1OC | 52% | inactive |  | 
17 | COc1ccc(-n2nc(C(=O)Nc3cccc(Oc4ncnc5cc(OC)c(OC)cc45)c3)c(C)cc2=O)cc1 |  |  | inactive | 7.64%
18 | CCc1ccc(-n2nc(C(=O)Nc3cccc(Oc4ncnc5cc(OC)c(OC)cc45)c3)c(C)cc2=O)cc1 |  |  | inactive | 39%
19 | COc1cc2ncnc(Nc3ccc(F)c(OC(=O)c4nn(-c5ccccc5)c(=O)cc4C)c3)c2cc1OC | 49.6% |  |  | 32.1%
20 | CCc1ccccc1-n1nc(C(=O)Nc2cccc(Oc3ccnc4cc(OC)c(OC)cc34)c2)c(C)cc1=O | 63.4% |  |  | 25.1%
21 | COc1cc2ncnc(Nc3ccc(OC(=O)c4nn(-c5ccccc5)c(=O)cc4C)c(C)c3)c2cc1OC |  |  | inactive | 23.9%
22 | COc1cc2nccc(Oc3cccc(NC(=O)c4nn(-c5ccc(C)cc5)c(=O)cc4C)c3)c2cc1OC |  | inactive | inactive | 
23 | COc1cc2ncnc(Oc3ccc(NC(=O)c4nn(-c5ccc(F)cc5)c(=O)cc4C)cc3)c2cc1OC | 70.1% |  |  | 20.6%
24 | COc1cc2ncnc(Oc3ccc(NC(=O)c4nn(-c5ccccc5)c(=O)cc4C)cc3)c2cc1OC | 46.9% |  |  | 54.8%
25 | COc1cc2nccc(Oc3ccc(NC(=O)c4nn(-c5ccc(F)cc5)c(=O)cc4C)cc3)c2cc1OC |  |  | inactive | 5.11%
26 | COc1cc2ncnc(Nc3ccc(F)c(OC(=O)c4nn(-c5ccc(C)cc5)c(=O)cc4C)c3)c2cc1OC | 34.9% |  |  | 48%
27 | COc1cc2ncnc(Oc3cccc(NC(=O)c4nn(-c5ccc(C)cc5)c(=O)cc4C)c3)c2cc1OC |  |  | inactive | 47.3%
28 | COc1cc2ncnc(Nc3ccc(F)c(OC(=O)c4nn(-c5ccc(F)cc5)c(=O)cc4C)c3)c2cc1OC | 38.8% |  |  | 46.5%
29 | COc1cc2ncnc(Oc3ccc(NC(=O)c4nn(-c5ccc(C)cc5)c(=O)cc4C)cc3)c2cc1OC | 64% |  |  | 63%
